# Patent US20250034165A1, “COMPOUND CONTAINING CYCLOALKYL OR HALOALKYL” (CHIA TAI TIANQING PHARMACEUTICAL GROUP CO., LTD., priority 2021, published 2025)
# How the values were obtained:
# EGFR (L858R/T790M) = EGFR (L858R/T790M) (Homo sapiens (Human), UniProt P00533, L858R/T790M); assay: Inhibitory activity for EGFR (L858R/T790M) kinase; type: biochemical; settings: ATP 5 μM
# Description: A 50 ng/μL EGFR (L858R/T790M, Carna) stock solution was diluted with a kinase buffer (50 mM HEPES, 10 mM MgCl2, 2 mM DTT, 1 mM EGTA, 0.01% Tween 20), and 6 μL of 1.67× working solution at 0.004175 ng/μL (final concentration: 0.0025 ng/μL) was added to each well. Different compounds dissolved in DMSO were added to wells using a nanoliter pipettor, resulting in the final concentrations of the compounds of 10 nM to 0.0024 nM (4-fold gradient, 7 concentrations in total), and blank control wells (without enzyme) and negative control wells (with enzyme, plus vehicle DMSO) were set, 2 replicate wells for each concentration. After enzyme was reacted with the compound or vehicle for 30 min, 5×ATP at 25 μM (final concentration: 5 μM, Sigma) prepared with a kinase buffer was mixed with 5× substrate at 0.5 μM (final concentration: 0.1 μM, ULight-poly GT, PerkinElmer) at a ratio of 1:1 (v:v), and the mixture was added to each well at 4 μL/well. After being sealed with a film, the plate was incubated at room temperature for 2 h, and then 5 μL of 4×EDTA at 40 mM (final concentration: 10 mM) was added to each well. After the plate was incubated for 5 min at room temperature, 5 μL of 4× detection reagent at 8 nM (final concentration: 2 nM, Eu-anti-phospho-tyrosine antibody, PerkinElmer) was added to each well. After being incubated at room temperature for 1 h, the plate was read using a PerkinElmer Envision multi-mode microplate reader (excitation: 320 nm, emission: 665 nm), and IC50 was calculated by four-parameter fitting.
# [1] = target: EGFR (d746-750/T790M/C797S) (Homo sapiens (Human), UniProt P00533, C797S/DEL746-750/T790M); assay: Inhibitory activity for EGFR (d746-750/T790M/C797S) kinase; type: biochemical; settings: ATP 5 μM; read-out: EGFR(d19/T790M/C797S) (IC50)
# Chain of EGFR (d746-750/T790M/C797S) (P00533 other isoform, or with tags, fused parts or gaps T790M/C797S/del 1-694/del 746-750 limits assumed): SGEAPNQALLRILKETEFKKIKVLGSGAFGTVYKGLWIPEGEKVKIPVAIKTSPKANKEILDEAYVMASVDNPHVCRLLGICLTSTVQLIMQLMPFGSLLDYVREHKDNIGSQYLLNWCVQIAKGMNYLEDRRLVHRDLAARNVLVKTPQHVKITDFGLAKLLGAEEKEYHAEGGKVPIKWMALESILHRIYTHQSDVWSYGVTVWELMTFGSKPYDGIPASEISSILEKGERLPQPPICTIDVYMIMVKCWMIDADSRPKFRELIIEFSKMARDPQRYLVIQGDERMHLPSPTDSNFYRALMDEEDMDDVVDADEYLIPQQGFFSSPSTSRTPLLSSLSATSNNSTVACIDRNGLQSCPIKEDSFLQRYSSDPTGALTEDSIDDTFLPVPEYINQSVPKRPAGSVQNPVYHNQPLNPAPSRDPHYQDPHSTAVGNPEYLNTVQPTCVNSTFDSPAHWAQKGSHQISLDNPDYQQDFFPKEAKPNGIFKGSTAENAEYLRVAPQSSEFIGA
# How it was run: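 EGFR d746-750/T790M/C797S (0.03 ng/μL final) preincubated 30 min with compound (10 nM–0.0024 nM, 4-fold, 7 points). Reaction with 5 μM ATP and 0.1 μM ULight-poly GT, 2 h at room temperature; EDTA stop, Eu-anti-phosphotyrosine TR-FRET read at 665 nm, IC50 by four-parameter fit.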
# NCI-H1975(L858R T790M) = assay: Nude mouse subcutaneous xenograft tumor model of NCI-H1975 cells; type: in vivo, nude mice; settings: once a day; for Tumor growth inhibition % (tumor weight, d 18) / Tumor growth inhibition % (volume, d 15): 17 days
# Text: Evaluation on drug effect on nude mouse subcutaneous xenograft tumor model of NCI-H1975 cells: NCI-H1975 cells were inoculated subcutaneously in the right axilla of SPF-grade female nude mice (source: Jiangsu Huachuang Sino Pharmaceutical Technology Co., Ltd.) at 1×10^6 cells/mouse. When the mean tumor volume reached about 200 mm^3, the animals were grouped.
# The day of grouping was defined as day 0, and intragastric administration was started on day 0 and performed once a day. The tumor volume was measured 2-3 times a week, meanwhile, the mice were weighed and the data were recorded; the general behavior of the mice was observed and recorded every day. After the experiment was completed, the tumors were removed, weighed, and photographed.
# Tumor volume TV (mm^3)=½×(a×b^2),
# Relative tumor volume RTV=TVt/TV0,
# Relative tumor proliferation rate T/C (%)=(TRTV/CRTV)×100%,
# Tumor growth inhibition rate TGI (%)=(1−TW/TW0)×100%;
# [2] = system: PC-9 EGFR-Del19-T790M-C797S cells; assay: Inhibition of proliferation of PC-9-EGFR (Del19 T790M C797S) cells, CCK-8; type: cell-based; settings: 72 h, read-out: PC-9-EGFR (Del19 T790M C797S) cell inhibitory activity IC50
# How it was run: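 Cells seeded at 2×10^4 cells/mL were treated 72 h with compound at 1000 nM-0.06 nM final, in replicate wells. CCK-8 absorbance at 450 nm after 2 h gave inhibition rate relative to negative control and blank. IC50 from four-parameter fit against log concentration.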
# Chain of EGFR (L858R/T790M) (P00533 25-1210 T790M/L858R): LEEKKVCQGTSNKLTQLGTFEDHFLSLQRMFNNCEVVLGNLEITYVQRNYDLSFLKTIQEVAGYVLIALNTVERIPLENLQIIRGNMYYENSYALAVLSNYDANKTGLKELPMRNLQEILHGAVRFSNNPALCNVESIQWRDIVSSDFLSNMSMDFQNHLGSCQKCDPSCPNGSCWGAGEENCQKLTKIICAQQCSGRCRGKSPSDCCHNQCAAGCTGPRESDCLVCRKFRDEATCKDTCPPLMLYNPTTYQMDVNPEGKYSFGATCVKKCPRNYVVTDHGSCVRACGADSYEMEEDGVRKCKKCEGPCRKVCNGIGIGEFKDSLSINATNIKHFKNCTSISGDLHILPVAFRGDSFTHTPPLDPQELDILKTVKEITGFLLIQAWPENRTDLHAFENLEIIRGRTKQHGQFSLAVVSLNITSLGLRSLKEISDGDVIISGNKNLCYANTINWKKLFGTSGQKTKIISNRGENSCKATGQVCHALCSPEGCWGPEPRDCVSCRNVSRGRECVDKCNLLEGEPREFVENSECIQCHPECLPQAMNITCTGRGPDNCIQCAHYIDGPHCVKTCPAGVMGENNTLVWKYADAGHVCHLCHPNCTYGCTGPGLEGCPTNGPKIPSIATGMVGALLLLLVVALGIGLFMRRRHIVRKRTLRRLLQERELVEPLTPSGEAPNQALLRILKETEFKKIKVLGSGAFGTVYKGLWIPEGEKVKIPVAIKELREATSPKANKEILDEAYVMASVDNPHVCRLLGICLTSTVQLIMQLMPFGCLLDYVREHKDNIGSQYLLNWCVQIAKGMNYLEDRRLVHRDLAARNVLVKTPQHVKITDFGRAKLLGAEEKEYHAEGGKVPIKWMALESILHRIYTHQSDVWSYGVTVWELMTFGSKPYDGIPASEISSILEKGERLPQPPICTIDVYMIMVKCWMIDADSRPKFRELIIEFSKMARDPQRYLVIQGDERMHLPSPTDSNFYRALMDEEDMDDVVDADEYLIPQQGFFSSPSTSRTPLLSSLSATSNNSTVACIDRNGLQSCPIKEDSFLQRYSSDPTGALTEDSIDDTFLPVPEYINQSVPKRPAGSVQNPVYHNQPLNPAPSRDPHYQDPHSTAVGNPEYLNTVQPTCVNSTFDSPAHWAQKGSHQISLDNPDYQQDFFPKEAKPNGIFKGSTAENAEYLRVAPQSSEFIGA
SMILES,IC50 (EGFR (L858R/T790M)) [pM],IC50 [1] [pM],IC50 [2] [pM],"Tumor growth inhibition % (tumor weight, d 18) (NCI-H1975(L858R T790M); 5 mpk (i.g))","Tumor growth inhibition % (volume, d 15) (NCI-H1975(L858R T790M); 5 mpk (i.g))","Tumor growth inhibition % (tumor weight, d 18) (NCI-H1975(L858R T790M); 10 mpk (i.g))","Tumor growth inhibition % (volume, d 15) (NCI-H1975(L858R T790M); 10 mpk (i.g))","Tumor growth inhibition % (tumor weight, d 14) (NCI-H1975(L858R T790M); 10 mpk (i.g), 14 days)","Tumor growth inhibition % (volume, d 12) (NCI-H1975(L858R T790M); 10 mpk (i.g), 14 days) [%]"
Cc1cc2cc(n1)-c1cnn(C)c1OCCC[C@@H](C1CC1)CN1/C(=N/C2=O)Nc2cc(NC3(C(F)(F)F)COC3)ccc21 [Example 88],10,181,–,–,–,–,–,–,–
Cc1cc2cc(n1)-c1cnn(C)c1OC[C@H](C1CC1)CCCn1c(nc3cc(NC4COC4)ccc31)NC2=O [Example 60],90,70,–,–,–,–,–,–,–
Cc1cc2cc(n1)-c1cnn(C)c1OCCC[C@@H](C1CC1)CN1/C(=N/C2=O)Nc2ccc(NCCN(C)C)cc21 [Example 28],–,11,< 50000,–,–,–,–,–,–
Cc1cc2cc(n1)-c1cnn(C)c1OCCC[C@@H](C1CC1)CN1/C(=N/C2=O)Nc2cc(NC3(C)COC3)ccc21 [Example 29],–,15,< 50000,"41.7% (tumor weight,","40.0% (volume, d 15)",83.9% (tumor,"75.0% (volume,",–,–
C[C@H](Nc1ccc2c(c1)N/C1=N\C(=O)c3cc(F)nc(c3)-c3cnn(C)c3OCCC[C@@H](C3CC3)CN12)C(F)(F)F [Example 9],450,450,–,–,–,–,–,–,–
Cc1cc2cc(n1)-c1cnn(C)c1OCCC[C@@H](C1CC1)CN1/C(=N/C2=O)Nc2cc(N[C@H]3CC[C@@H](N(C)C)CC3)ccc21 [Example 26],25,17,< 50000,–,–,–,–,–,–

# The next lines start with results.
IC50 (EGFR (L858R/T790M)) [pM],IC50 [1] [pM],IC50 [2] [pM],SMILES,"Tumor growth inhibition % (tumor weight, d 18) (NCI-H1975(L858R T790M); 5 mpk (i.g))","Tumor growth inhibition % (volume, d 15) (NCI-H1975(L858R T790M); 5 mpk (i.g))","Tumor growth inhibition % (tumor weight, d 18) (NCI-H1975(L858R T790M); 10 mpk (i.g))","Tumor growth inhibition % (volume, d 15) (NCI-H1975(L858R T790M); 10 mpk (i.g))","Tumor growth inhibition % (tumor weight, d 14) (NCI-H1975(L858R T790M); 10 mpk (i.g), 14 days)","Tumor growth inhibition % (volume, d 12) (NCI-H1975(L858R T790M); 10 mpk (i.g), 14 days) [%]"
21,14,< 50000,Cc1cc2cc(n1)-c1cnn(C)c1OCCC[C@@H](C1CC1)CN1/C(=N/C2=O)Nc2cc(N[C@H]3CC[C@H](N(C)C)CC3)ccc21 [Example 25],31.4% (tumor,"22.5% (volume,",75.8% (tumor,"72.5% (volume,",–,–
40,24,< 50000,Cc1cc2cc(n1)-c1cnn(C)c1OCCC[C@@H](C1CC1)CN1/C(=N/C2=O)Nc2cc(N[C@H](C)C3COC3)ccc21 [Example 39],–,–,–,–,65.1% (tumor,70.2
31,21,–,Cc1cc2cc(n1)-c1cnn(C)c1OCCC[C@@H](C1CC1)CN1/C(=N/C2=O)Nc2ccc(C=CCCN(C)C)cc21 [Example 24],–,–,–,–,–,–
81,74,–,Cc1cc2cc(n1)-c1cnn(C)c1OC[C@H](C1CC1)CCCn1c(nc3ccc(NC4COC4)cc31)NC2=O [Example 59],–,–,–,–,–,–
